Measured values from US4260745A, “3-Halo cephalosporins” (Eli Lilly and Company, priority 1979, dated 1981).
≈ marks a conversion by molar mass, not a printed value. Where two headings read alike, the source gives them in different places.

How the values were obtained:
Format in all cases: cell-based
Klebsiella pneumoniae [1] = test: Gradient Plate technique, MIC; settings: read-out: Minimum Inhibitory Concentration
Excerpt: (§1) The following Table II lists the minimum inhibitory concentration (MIC) for 7-[2-(2-thienyl)acetamido]-3-chloro-3-cephem-4-carboxylic acid against penicillin resistant Staphylococcus both in the presence of and absence of serum. The MIC values were obtained by the Gradient Plate technique carried out essentially as described by Bryson and Szybalski, Science, 116, 45 (1952).
(§2) In Table III, below, the MIC values for the test compound of Tables I and II against representative gram-negative organisms is presented. The data were obtained by the Gradient Plate technique.
(§3) The minimum inhibitory concentrations for 7-[2-(2-thienyl)acetamido]-3-bromo-3-cephem-4-carboxylic acid against representative gram-negative bacteria is presented in Table VI. The data were obtained by the Gradient Plate Method.
(§4) Tables VII and VIII list the minimum inhibitory concentrations of the test compound effective against representative penicillin resistant Staphylococcus strains, while […] the MIC values obtained against representative gram-negative microorganisms. The data were obtained by the Gradient Plate method.

Shigella sp. = test: Gradient Plate technique, MIC; settings: read-out: Minimum Inhibitory Concentration
Excerpt: as §1, §2, §3, §4

Pseudomonas aeruginosa = test: Gradient Plate technique, MIC; settings: read-out: Minimum Inhibitory Concentration
Excerpt: as §1, §2, §3, §4

Escherichia coli [2] = test: Gradient Plate technique, MIC; settings: read-out: Minimum Inhibitory Concentration
Excerpt: as §1, §2, §3, §4

Serratia marcescens = test: Gradient Plate technique, MIC; settings: read-out: Minimum Inhibitory Concentration
Excerpt: as §1, §2, §3, §4

Salmonella heidelberg = test: Gradient Plate technique, MIC; settings: Salmonella enterica, read-out: Minimum Inhibitory Concentration
Excerpt: as §1, §2, §3, §4

Aerobacter aerogenes = test: Gradient Plate technique, MIC; settings: Klebsiella aerogenes, read-out: Minimum Inhibitory Concentration
Excerpt: as §1, §2, §3, §4

Salmonella gallinarum = test: standard disc-plate method, zone of inhibition; settings: Salmonella enterica, GALLINARUM, Table I, read-out: Zone of Inhibition (diameter in mm)
Excerpt: (§5) The in vitro antimicrobial activity of the 3-halo cephalosporins is illustrated by the data in the following tables. Table I contains the antimicrobial activity for 7-[2-(2-thienyl)acetamido]-3-chloro-3-cephem-4-carboxylic acid obtained in the standard Disc-plate method. The numerical values are the diameter in millimeters of the zones of inhibition observed with the named organisms.
(§6) In Table IV below, the in vitro antimicrobial activity of 7-[2-(2-thienyl)acetamido]-3-bromo-3-cephem-4-carboxylic acid is presented for several illustrative microorganisms. The data presented were obtained in the standard disc-plate method with the numerical values recording the diameter in millimeters of the zones of inhibition observed with the named microorganisms.

[3] = tested on: Pseudomonas solanacearcum; test: standard disc-plate method, zone of inhibition; settings: Pseudomonas, Table I, read-out: Zone of Inhibition (diameter in mm)
Excerpt: as §5, §6

Klebsiella pneumoniae [4] = test: standard disc-plate method, zone of inhibition; settings: Table I, read-out: Zone of Inhibition (diameter in mm)
Excerpt: as §5, §6

Escherichia coli [5] = test: standard disc-plate method, zone of inhibition; settings: Table I, read-out: Zone of Inhibition (diameter in mm)
Excerpt: as §5, §6

Bacillus subtilis = test: standard disc-plate method, zone of inhibition; settings: Table I, read-out: Zone of Inhibition (diameter in mm)
Excerpt: as §5, §6

Proteus vulgaris = test: standard disc-plate method, zone of inhibition; settings: 1.0 mg/ml, Table I, read-out: Zone of Inhibition (diameter in mm)
Excerpt: as §5, §6

Staphylococcus aureus = test: standard disc-plate method, zone of inhibition; settings: Table I, read-out: Zone of Inhibition (diameter in mm)
Excerpt: as §5, §6

Mycobacterium avium = test: standard disc-plate method, zone of inhibition; settings: 1.0 mg/ml, Table I, read-out: Zone of Inhibition (diameter in mm)
Excerpt: as §5, §6

Sarcina lutea = test: standard disc-plate method, zone of inhibition; settings: Micrococcus luteus, Table I, read-out: Zone of Inhibition (diameter in mm)
Excerpt: as §5, §6

[6] = tested on: Methicillin resistant Staphylococcus; test: Gradient Plate technique, MIC; settings: Clinical Isolate X400 (methicillin resistant)
[7] = tested on: Penicillin Resistant Staphylococcus; test: Gradient Plate technique, MIC; settings: read-out: Minimum Inhibitory Concentration
Excerpt: as §1, with “(1952). […]” for “(1952).”

Escherichia coli [8] = test: standard disc-plate method, zone of inhibition; parameters: key: H: hazy zone of inhibition; Tr: trace zone of inhibition; settings: 0.01 mg/ml; Table I
Excerpt: as §5, §6

bioautogram = test: bioautogram
Experimental: To 110 ml. of methanol and 83 mg. of pre-reduced 5 percent palladium on carbon were added 83 mg. of p-nitrobenzyl 7-[2-(2-thienyl)acetamido]-3-fluoro-3-cephem-4-carboxylate. The mixture was hydrogenated at 53 psig. for one hour. The resulting mixture was filtered, the filtered catalyst was washed with methanol, and the methanol washings were added to the filtrate. The filtrate was then evaporated in vacuo. The residue was dissolved in ethyl acetate, and the ethyl acetate solution was extracted with dilute aqueous sodium bicarbonate. The sodium bicarbonate solution was washed with ethyl acetate, layered with ethyl acetate, and dilute aqueous HCl was added.

SMILES: O=C(Cc1cccs1)NC1C(=O)N2C(C(=O)O)=C(Cl)CS[C@H]12 (stereo partly drawn) [7-[2-(2-Thienyl)acetamido]-3-chloro-3-cephem-4-carboxylic acid]
- MIC (Klebsiella pneumoniae [1]): 0.6 µg/mL (≈ 1.67 µM)
- MIC (Shigella sp.): 25 µg/mL (≈ 69.7 µM)
- MIC (Pseudomonas aeruginosa): > 200 µg/mL
- MIC (Escherichia coli [2]): 18.5 µg/mL (≈ 51.6 µM)
- MIC (Serratia marcescens): > 200 µg/mL
- MIC (Salmonella heidelberg): 0.8 µg/mL (≈ 2.23 µM)
- MIC (Aerobacter aerogenes): 0.8 µg/mL (≈ 2.23 µM)
- zone of inhibition at 100 µg/mL (Salmonella gallinarum; 0.1 mg/ml): 22 mm
- zone of inhibition at 1000 µg/mL (Salmonella gallinarum; 1.0 mg/ml): 32 mm
- zone of inhibition at 100 µg/mL ([3]; 0.1 mg/ml): 21 mm
- zone of inhibition at 1000 µg/mL ([3]; 1.0 mg/ml): 28 mm
- zone of inhibition at 10 µg/mL (Klebsiella pneumoniae [4]; 0.01 mg/ml): 13 mm
- zone of inhibition at 100 µg/mL (Klebsiella pneumoniae [4]; 0.1 mg/ml): 27 mm
- zone of inhibition at 1000 µg/mL (Klebsiella pneumoniae [4]; 1.0 mg/ml): 36 mm
- zone of inhibition at 100 µg/mL (Escherichia coli [5]; 0.1 mg/ml): 19 mm
- zone of inhibition at 1000 µg/mL (Escherichia coli [5]; 1.0 mg/ml): 24 mm
- zone of inhibition at 10 µg/mL (Bacillus subtilis; 0.01 mg/ml): 24 mm
- zone of inhibition at 100 µg/mL (Bacillus subtilis; 0.1 mg/ml): 40 mm
- zone of inhibition at 1000 µg/mL (Bacillus subtilis; 1.0 mg/ml): 48 mm
- zone of inhibition at 1000 µg/mL (Proteus vulgaris): 17 mm
- zone of inhibition at 10 µg/mL (Staphylococcus aureus; 0.01 mg/ml): 20 mm
- zone of inhibition at 100 µg/mL (Staphylococcus aureus; 0.1 mg/ml): 29 mm
- zone of inhibition at 1000 µg/mL (Staphylococcus aureus; 1.0 mg/ml): 31 mm
- zone of inhibition at 1000 µg/mL (Mycobacterium avium): 14 mm
- zone of inhibition at 10 µg/mL (Sarcina lutea; 0.01 mg/ml): 21 mm
- zone of inhibition at 100 µg/mL (Sarcina lutea; 0.1 mg/ml): 28 mm
- zone of inhibition at 1000 µg/mL (Sarcina lutea; 1.0 mg/ml): 37 mm
- Minimum Inhibitory Concentration ([6]; Serum): > 20 µg/mL
- MIC ([6]; Staphylococcus, No Serum, read-out: Minimum Inhibitory Concentration): > 20 µg/mL
- MIC ([7]; Clinical Isolate V 32, No Serum): 8.4 µg/mL (≈ 23.4 µM)
- MIC ([7]; Clinical Isolate V 32, Serum): > 20 µg/mL
- MIC ([7]; Clinical Isolate V 41, No Serum): 5 µg/mL (≈ 13.9 µM)
- MIC ([7]; Clinical Isolate V 41, Serum): 7 µg/mL (≈ 19.5 µM)
- MIC ([7]; Clinical Isolate V 84, No Serum): 0.8 µg/mL (≈ 2.23 µM)
- MIC ([7]; Clinical Isolate V 84, Serum): 1 µg/mL (≈ 2.79 µM)
- MIC ([7]; Clinical Isolate X 1.1, No Serum): 0.2 µg/mL (≈ 0.557 µM)
- MIC ([7]; Clinical Isolate X 1.1, Serum): < 0.1 µg/mL
- Zone of Inhibition (diameter in mm) (Escherichia coli [8]): Tr

SMILES: O=C(Cc1cccs1)NC1C(=O)N2C(C(=O)O)=C(F)CS[C@H]12 (stereo partly drawn) [7-[2-(2-Thienyl)acetamido]-3-fluoro-3-cephem-4-carboxylic acid]
- biological activity by bioautogram (bioautogram): biologically active
